According to patent US20110207609A1, “Piperazine Compounds With Herbicidal Effect” (BASF SE, priority 2008, published 2011):

How the values were obtained:
AGSST = experiment: greenhouse test, post-emergence treatment; assay type: in vivo, Agrostis alba; settings: 2.0 kg/ha, scale 0 to 100
Source text: (§1) The culture containers used were plastic flowerpots containing loamy sand with approximately 5.8% of humus as the substrate. The seeds of the test plants were sown separately for each species.
(§2) For the post-emergence treatment, the test plants were first grown to a height of 1.5 to 15 cm, depending on the plant habit, and then treated with the active compounds which had been suspended or emulsified in water. For this purpose, the test plants were either sown directly and grown in the same containers, or they were first grown separately as seedlings and transplanted into the test containers a few days prior to treatment.
(§3) Depending on the species, the plants were kept at 10-25° C. or 20-35° C. The test period extended over 1 to 4 weeks. During this time, the plants were tended, and their response to the individual treatments was evaluated.
(§4) Evaluation was carried out using a scale from 0 to 100. 100 means no emergence of the plants, or complete destruction of at least the aerial moieties, and 0 means no damage, or normal course of growth. A good herbicidal activity is given at values of at least 70 and a very good herbicidal activity is given at values of at least 85.

MATIN [1] = experiment: greenhouse test, pre-emergence treatment; assay type: in vivo, Matricaria inodora; settings: 2.0 kg/ha, scale 0 to 100
Source text: as §1
(§5) For the pre-emergence treatment, the active compounds, which had been suspended or emulsified in water, were applied directly after sowing by means of finely distributing nozzles. The containers were irrigated gently to promote germination and growth and subsequently covered with transparent plastic hoods until the plants had rooted. This cover caused uniform germination of the test plants, unless this has been impaired by the active compounds.
as §3, §4

MATIN [2] = experiment: greenhouse test, post-emergence treatment; assay type: in vivo, Matricaria inodora; settings: 2.0 kg/ha, scale 0 to 100
Source text: as §1, §2, §3, §4

CHEAL = experiment: greenhouse test, post-emergence treatment; assay type: in vivo, Chenopodium album; settings: 1.0 kg/ha, scale 0 to 100
Source text: as §1, §2, §3, §4

SETVI = experiment: greenhouse test, pre-emergence treatment; assay type: in vivo, Setaria viridis; settings: 1.0 kg/ha, scale 0 to 100
Source text: as §1, §5, §3, §4

ECHCG = experiment: greenhouse test, post-emergence treatment; assay type: in vivo, Echinochloa crus-galli; settings: 1.0 kg/ha, scale 0 to 100
Source text: as §1, §2, §3, §4

AMARE = experiment: greenhouse test, post-emergence treatment; assay type: in vivo, Amaranthus retroflexus; settings: 0.5 kg/ha, scale 0 to 100
Source text: as §1, §2, §3, §4

GALAP = experiment: greenhouse test, post-emergence treatment; assay type: in vivo, Galium aparine; settings: 0.5 kg/ha, scale 0 to 100
Source text: as §1, §2, §3, §4

APESV = experiment: greenhouse test, pre-emergence treatment; assay type: in vivo, Apera spica-venti
Procedure: as §1
(§6) The containers were irrigated gently to promote germination and growth and subsequently covered with transparent plastic hoods until the plants had rooted.
as §3, §4

SETFA = experiment: greenhouse test, pre-emergence treatment; assay type: in vivo, Setaria faberi; settings: comparative experiment, 0.5 kg/ha
Procedure: as §1, §6, §3, §4

[3] = comparative experiment, 0.5 kg/ha

CN1C(=O)C(C)(Cc2ccccc2)N(C)C(=O)C1=Cc1occc1Br (racemic) [I-11]
herbicidal activity (AGSST): very good (a very good herbicidal activity is given at values of at least 85) | herbicidal activity (MATIN [1]): very good (a very good herbicidal activity is given at values of at least 85) | herbicidal activity (MATIN [2]): very good (a very good herbicidal activity is given at values of at least 85)

Cc1nn(C)c(Cl)c1C=C1C(=O)N(C)C(C)(Cc2ccccc2)C(=O)N1C (racemic) [I-15]
herbicidal activity (CHEAL): very good (a very good herbicidal activity is given at values of at least 85) | herbicidal activity (SETVI): very good (a very good herbicidal activity is given at values of at least 85)

CN1C(=O)C(=Cc2cn(C)c3cccc([N+](=O)[O-])c23)NC(=O)C1(C)Cc1ccccc1 (racemic) [I-18]
herbicidal activity (ECHCG): good (A good herbicidal activity is given at values of at least 70)

Cc1ncn(C)c1C=C1C(=O)N(C)C(C)(Cc2ccccc2)C(=O)N1C (racemic) [I-38]
herbicidal activity (AMARE): good (A good herbicidal activity is given at values of at least 70) | herbicidal activity (GALAP): very good (a very good herbicidal activity is given at values of at least 85)

CN1C(=O)C(C)(Cc2ccccc2)N(C)C(=O)C1=Cc1cc(Cl)sc1Cl (racemic) [I-56]
herbicidal activity (APESV; [3]): 80% | herbicidal activity (SETFA): 80%

CN1C(=O)C(C)(Cc2ccccc2)N(C)C(=O)C1=Cc1cnn2cccnc12 (racemic) [I-61]
herbicidal activity (APESV; 1.0 kg/ha, scale 0 to 100): good (A good herbicidal activity is given at values of at least 70)

CN1C(=O)C(Cc2cscc2C(F)(F)F)N(C)C(=O)C1Cc1ccccc1 (centres unmarked) [Ex. I.236.1, reference compound]
herbicidal activity (APESV; [3]): 20%

CN1C(=O)C(C)(Cc2ccccc2)N(C)C(=O)C1Cc1cscc1C(F)(F)F (centres unmarked) [II-21]
herbicidal activity (APESV; [3]): 98% | herbicidal activity (SETFA): 95%
